According to patent publication US20260297085A1, “1 H-PYRROLO[2,3-B]PYRIDIN-4-YL]-2-OXOPYRROLIDINE-3-CARBONITRILE DERIVATIVES AS TYROSINE KINASE 2 (TYK2) INHIBITORS FOR THE TREATMENT OF INFLAMMATORY DISEASES” (BIOGEN MA INC., priority 2023, published 2026):
Counter-ions that a name gives are not always drawn.

What was measured:
[1] = biological target: JAK2 kinase activity on STAT5 in TF1 cells (Homo sapiens, UniProt O60674); test: pSTAT5 cell assay (MSD; TF1 cells, 30 ng/mL IL-3 stimulation); type: cell-based; conditions: 30 ng/mL IL-3, 15 minutes
Sequence of JAK2 kinase activity on STAT5 in TF1 cells (O60674 whole entry): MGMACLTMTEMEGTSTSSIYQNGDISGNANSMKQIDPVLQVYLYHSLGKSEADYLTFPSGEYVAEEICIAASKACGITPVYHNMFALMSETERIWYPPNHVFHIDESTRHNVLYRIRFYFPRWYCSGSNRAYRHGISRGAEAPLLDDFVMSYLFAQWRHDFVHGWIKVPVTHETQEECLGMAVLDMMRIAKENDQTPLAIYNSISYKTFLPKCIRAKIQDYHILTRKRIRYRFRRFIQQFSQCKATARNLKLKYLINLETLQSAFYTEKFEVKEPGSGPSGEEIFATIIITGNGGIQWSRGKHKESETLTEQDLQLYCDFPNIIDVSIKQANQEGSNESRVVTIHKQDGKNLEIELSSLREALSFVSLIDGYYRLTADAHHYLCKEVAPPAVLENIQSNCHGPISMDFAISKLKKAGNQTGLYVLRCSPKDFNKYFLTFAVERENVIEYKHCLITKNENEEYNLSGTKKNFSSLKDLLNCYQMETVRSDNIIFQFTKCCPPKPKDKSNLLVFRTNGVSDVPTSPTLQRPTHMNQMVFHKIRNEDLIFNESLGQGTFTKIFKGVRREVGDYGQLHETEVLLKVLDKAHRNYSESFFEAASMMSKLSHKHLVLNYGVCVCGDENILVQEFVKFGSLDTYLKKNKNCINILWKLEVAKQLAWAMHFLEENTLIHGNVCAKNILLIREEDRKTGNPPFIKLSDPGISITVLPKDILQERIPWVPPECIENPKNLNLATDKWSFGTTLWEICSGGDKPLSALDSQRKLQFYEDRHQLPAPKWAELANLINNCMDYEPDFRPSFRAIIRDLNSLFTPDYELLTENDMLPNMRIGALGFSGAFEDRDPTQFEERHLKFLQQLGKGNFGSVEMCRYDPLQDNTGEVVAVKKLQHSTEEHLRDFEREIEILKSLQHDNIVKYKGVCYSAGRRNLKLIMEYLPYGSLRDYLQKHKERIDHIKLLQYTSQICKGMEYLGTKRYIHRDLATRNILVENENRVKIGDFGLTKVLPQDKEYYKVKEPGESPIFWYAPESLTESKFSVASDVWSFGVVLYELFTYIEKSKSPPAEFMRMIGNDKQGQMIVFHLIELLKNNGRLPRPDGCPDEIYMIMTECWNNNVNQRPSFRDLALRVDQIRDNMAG
Procedure, shortened: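 Serum-starved TF1 cells with native JAK2/STAT5 were pretreated 1 h with compound (10-point four-fold dilutions from 10 μM), then stimulated 15 min with 30 ng/mL IL-3. pSTAT5 in lysates quantified by MSD immunoassay; normalized percent activity fitted to a 4-parameter logistic curve for IC50.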

[2] = biological target: Tyk2 kinase activity on STAT4 in NK92 cells (Homo sapiens, UniProt P29597); test: pSTAT4 cell assay (MSD; NK92 cells, 30 ng/mL IL2 stimulation); type: cell-based; conditions: 30 ng/mL IL2, 15 minutes
Sequence of Tyk2 kinase activity on STAT4 in NK92 cells (P29597 whole entry): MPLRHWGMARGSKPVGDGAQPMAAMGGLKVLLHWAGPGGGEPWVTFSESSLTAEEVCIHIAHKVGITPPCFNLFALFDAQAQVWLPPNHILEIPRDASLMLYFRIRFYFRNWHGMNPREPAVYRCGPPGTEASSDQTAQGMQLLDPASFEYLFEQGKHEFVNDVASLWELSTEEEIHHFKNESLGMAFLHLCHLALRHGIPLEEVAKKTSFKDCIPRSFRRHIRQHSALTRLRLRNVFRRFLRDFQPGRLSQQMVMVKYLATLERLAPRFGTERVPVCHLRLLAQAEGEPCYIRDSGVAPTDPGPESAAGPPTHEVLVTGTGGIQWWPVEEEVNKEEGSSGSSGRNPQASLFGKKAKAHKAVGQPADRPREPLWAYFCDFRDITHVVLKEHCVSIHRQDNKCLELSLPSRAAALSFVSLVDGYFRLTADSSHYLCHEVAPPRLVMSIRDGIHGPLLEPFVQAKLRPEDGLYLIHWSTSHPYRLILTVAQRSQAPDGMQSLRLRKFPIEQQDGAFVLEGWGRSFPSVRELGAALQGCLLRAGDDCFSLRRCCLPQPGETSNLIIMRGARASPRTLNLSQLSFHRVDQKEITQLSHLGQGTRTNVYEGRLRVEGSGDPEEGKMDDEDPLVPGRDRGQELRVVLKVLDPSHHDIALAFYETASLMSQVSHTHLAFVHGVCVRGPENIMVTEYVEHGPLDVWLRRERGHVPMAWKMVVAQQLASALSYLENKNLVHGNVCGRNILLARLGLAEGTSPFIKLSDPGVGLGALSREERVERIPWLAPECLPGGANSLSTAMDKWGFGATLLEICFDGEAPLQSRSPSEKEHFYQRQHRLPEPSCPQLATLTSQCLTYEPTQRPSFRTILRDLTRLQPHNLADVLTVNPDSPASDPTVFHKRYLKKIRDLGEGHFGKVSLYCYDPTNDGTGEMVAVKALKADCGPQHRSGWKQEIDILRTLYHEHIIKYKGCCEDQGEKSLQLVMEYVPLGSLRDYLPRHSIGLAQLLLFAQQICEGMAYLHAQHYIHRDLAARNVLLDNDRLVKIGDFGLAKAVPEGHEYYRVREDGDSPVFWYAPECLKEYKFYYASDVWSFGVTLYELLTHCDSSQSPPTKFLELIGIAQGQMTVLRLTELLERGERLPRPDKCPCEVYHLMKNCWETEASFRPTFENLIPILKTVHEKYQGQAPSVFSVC
Procedure, shortened: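 Serum-starved NK92 cells, which natively express Tyk2 and STAT4, were pretreated for 1 h with a 10-point 4-fold dilution series from 10 μM. They were then stimulated with 30 ng/mL IL2 for 15 min. Phospho-STAT in lysates was quantified by MSD with anti-STAT4 antibodies, and IC50 was obtained from 4-parameter logistic fits.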

[3] = biological target: T1, human JAK1 kinase domain (JH1) (Homo sapiens, UniProt P23458); test: JH1 biochemical assay for JAK1 (ADP-Glo kinase assay, recombinant JH1 catalytic domain, JAK3-342 peptide, 35 μM ATP)
T1 construct: recombinantly generated catalytic kinase (also known as JH1) domain of human JAK1, JAK2, JAK3 and TYK2
T1 sequence (P23458 875-1153 limits assumed): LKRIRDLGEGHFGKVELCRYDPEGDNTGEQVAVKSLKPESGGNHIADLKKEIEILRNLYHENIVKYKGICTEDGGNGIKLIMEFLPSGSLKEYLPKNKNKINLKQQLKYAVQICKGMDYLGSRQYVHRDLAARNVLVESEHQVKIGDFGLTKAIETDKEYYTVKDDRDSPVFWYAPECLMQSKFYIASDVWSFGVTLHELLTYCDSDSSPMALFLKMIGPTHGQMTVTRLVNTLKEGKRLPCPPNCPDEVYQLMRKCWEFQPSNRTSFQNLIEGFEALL
Procedure, shortened: (§1)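 Compounds were titrated in 11 points of 3-fold dilution starting at 10 μM or 1 μM. Enzyme (JAK1 4 nM, JAK2 0.2 nM, JAK3 0.3 nM, TYK2 2 nM) and 50 μM peptide reacted for 100 minutes, followed by ADP-to-luminescence detection; IC50 by 4-parameter fit.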

[4] = biological target: T2, human TYK2 kinase domain (JH1) (Homo sapiens, UniProt P29597); test: JH1 biochemical assay for TYK2 (ADP-Glo kinase assay, recombinant JH1 catalytic domain, JAK3-974 peptide, 10 μM ATP)
T2 construct: recombinantly generated catalytic kinase (also known as JH1) domain of human JAK1, JAK2, JAK3 and TYK2
T2 sequence (P29597 897-1176 limits assumed): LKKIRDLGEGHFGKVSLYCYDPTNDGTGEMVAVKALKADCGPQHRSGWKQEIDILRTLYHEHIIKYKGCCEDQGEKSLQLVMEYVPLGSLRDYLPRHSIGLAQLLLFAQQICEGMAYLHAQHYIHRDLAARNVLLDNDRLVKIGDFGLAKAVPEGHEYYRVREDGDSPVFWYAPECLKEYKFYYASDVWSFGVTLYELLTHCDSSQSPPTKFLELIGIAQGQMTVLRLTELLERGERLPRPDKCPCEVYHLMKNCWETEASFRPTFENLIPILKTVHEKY
Procedure, shortened: as §1

[5] = biological target: T3, human JAK2 kinase domain (JH1) (Homo sapiens, UniProt O60674); test: JH1 biochemical assay for JAK2 (ADP-Glo kinase assay, recombinant JH1 catalytic domain, JAK3-974 peptide, 15 μM ATP)
T3 construct: recombinantly generated catalytic kinase (also known as JH1) domain of human JAK1, JAK2, JAK3 and TYK2
T3 sequence (O60674 849-1124 limits assumed): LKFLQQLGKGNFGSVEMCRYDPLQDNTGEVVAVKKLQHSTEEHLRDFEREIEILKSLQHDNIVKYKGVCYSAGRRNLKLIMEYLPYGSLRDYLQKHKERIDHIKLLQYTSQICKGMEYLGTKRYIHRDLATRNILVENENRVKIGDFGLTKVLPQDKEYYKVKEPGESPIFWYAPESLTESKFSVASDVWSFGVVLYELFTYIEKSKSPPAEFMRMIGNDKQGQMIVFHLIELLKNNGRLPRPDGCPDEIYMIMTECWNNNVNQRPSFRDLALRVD
Procedure, shortened: as §1

[6] = biological target: T4, human JAK3 kinase domain (JH1) (Homo sapiens, UniProt P52333); test: JH1 biochemical assay for JAK3 (ADP-Glo kinase assay, recombinant JH1 catalytic domain, JAK3-974 peptide, 4 μM ATP)
T4 construct: recombinantly generated catalytic kinase (also known as JH1) domain of human JAK1, JAK2, JAK3 and TYK2
T4 sequence (P52333 822-1111 limits assumed): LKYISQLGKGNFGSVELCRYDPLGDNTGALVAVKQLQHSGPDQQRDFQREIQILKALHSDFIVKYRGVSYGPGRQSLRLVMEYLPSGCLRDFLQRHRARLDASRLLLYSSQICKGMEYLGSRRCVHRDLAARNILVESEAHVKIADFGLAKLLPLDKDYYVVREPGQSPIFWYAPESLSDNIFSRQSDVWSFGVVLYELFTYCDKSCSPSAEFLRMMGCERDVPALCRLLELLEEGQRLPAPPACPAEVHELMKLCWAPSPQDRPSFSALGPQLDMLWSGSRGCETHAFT
Procedure, shortened: as §1

[7] = biological target: JAK1 kinase activity on STAT3 in TF1 cells (Homo sapiens, UniProt P23458); test: pSTAT3 cell assay (MSD; TF1 cells, 30 ng/mL IL-6 stimulation); type: cell-based; conditions: 30 ng/mL IL-6, 15 minutes
Sequence of JAK1 kinase activity on STAT3 in TF1 cells (P23458 whole entry): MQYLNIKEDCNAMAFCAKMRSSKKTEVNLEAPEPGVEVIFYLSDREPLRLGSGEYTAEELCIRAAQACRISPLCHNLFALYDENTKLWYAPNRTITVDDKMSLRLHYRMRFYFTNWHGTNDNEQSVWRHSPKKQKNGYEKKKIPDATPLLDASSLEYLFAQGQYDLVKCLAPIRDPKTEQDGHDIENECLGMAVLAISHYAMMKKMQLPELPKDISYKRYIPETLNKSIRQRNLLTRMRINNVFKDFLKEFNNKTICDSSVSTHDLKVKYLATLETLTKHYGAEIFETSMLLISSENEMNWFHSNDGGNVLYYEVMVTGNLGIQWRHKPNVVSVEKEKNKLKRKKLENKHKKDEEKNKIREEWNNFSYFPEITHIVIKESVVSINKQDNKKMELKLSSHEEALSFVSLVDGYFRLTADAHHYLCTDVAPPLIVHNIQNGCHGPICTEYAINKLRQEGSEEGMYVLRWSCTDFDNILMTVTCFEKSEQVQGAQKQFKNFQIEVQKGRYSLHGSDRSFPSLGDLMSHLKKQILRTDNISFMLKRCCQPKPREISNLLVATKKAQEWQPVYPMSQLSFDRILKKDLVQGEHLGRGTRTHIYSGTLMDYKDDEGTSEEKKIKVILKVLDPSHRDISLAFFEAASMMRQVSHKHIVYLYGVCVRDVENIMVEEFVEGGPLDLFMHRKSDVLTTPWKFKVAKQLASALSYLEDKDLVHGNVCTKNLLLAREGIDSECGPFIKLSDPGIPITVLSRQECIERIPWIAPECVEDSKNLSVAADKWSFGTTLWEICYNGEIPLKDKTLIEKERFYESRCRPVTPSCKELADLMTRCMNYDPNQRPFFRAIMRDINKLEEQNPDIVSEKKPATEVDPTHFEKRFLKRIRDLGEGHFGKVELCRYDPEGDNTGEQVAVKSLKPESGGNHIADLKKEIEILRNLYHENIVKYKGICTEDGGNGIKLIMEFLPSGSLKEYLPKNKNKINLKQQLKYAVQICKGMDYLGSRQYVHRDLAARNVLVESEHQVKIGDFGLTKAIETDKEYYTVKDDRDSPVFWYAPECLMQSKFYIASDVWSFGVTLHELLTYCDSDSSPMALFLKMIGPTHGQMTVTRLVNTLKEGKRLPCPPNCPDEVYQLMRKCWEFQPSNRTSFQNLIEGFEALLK
Procedure, shortened: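 Serum-starved TF1 cells were pretreated with compound for 1 hour (10-point, four-fold dilutions from 10 μM), then stimulated with IL-6 for 15 minutes. Lysates were assayed for pSTAT3 by MSD with anti-STAT3 antibodies; IC50 came from a 4-parameter logistic fit of normalized percent activity.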

## C[C@@H]1CN(c2nc(-c3ccc(=O)n(C)c3)cn3nccc23)C(=O)[C@]1(C#N)C1CC1 [Example 245, (3R,4S)-3-cyclopropyl-4-methyl-1-(6-(1-methyl-6-oxo-1,6-dihydropyridin-3-yl)pyrazolo[1,5-a]pyrazin-4-yl)-2-oxopyrrolidine-3-carbonitrile]
[1]
  IC50: 1000 to 5000 nM
[2]
  IC50: 50 to 100 nM
[3]; JAK1 JH1, ADP-Glo
  IC50: < 100 nM
[4]; TYK2 JH1, ADP-Glo
  IC50: < 5 nM
[5]; JAK2 JH1, ADP-Glo
  IC50: 100 to 1000 nM
[6]; JAK3 JH1, ADP-Glo
  IC50: < 100 nM
[7]
  IC50: 100 to 1000 nM

## COc1cc(-c2cc3c(N4CC[C@](C#N)(C5CC5)C4=O)ccnc3[nH]2)ccn1 [Example 5, (R)-3-cyclopropyl-1-(2-(2-methoxypyridin-4-yl)-1H-pyrrolo[2,3-b]pyridin-4-yl)-2-oxopyrrolidine-3-carbonitrile]
[1]
  IC50: > 10000 nM
[2]
  IC50: > 100 nM
[3]; JH1 kinase domain, ADP-Glo
  IC50: 1000 to 5000 nM
[4]; JH1 kinase domain, ADP-Glo
  IC50: > 100 nM
[5]; JH1 kinase domain, ADP-Glo
  IC50: 100 to 1000 nM
[6]; JH1 kinase domain, ADP-Glo
  IC50: 1000 to 5000 nM
[7]
  IC50: 5000 to 10000 nM

## C[C@@H]1CN(c2nc(-c3ccc(O)nc3)cn3nccc23)C(=O)[C@]1(C#N)C1CC1 [Example 267, (3R,4S)-3-cyclopropyl-1-(6-(6-hydroxypyridin-3-yl)pyrazolo[1,5-a]pyrazin-4-yl)-4-methyl-2-oxopyrrolidine-3-carbonitrile trifluoroacetate]
[1]
  IC50: 100 to 1000 nM
[2]
  IC50: 50 to 100 nM
[3]; JAK1 JH1, ADP-Glo
  IC50: < 100 nM
[4]; TYK2 JH1, ADP-Glo
  IC50: < 5 nM
[5]; JAK2 JH1, ADP-Glo
  IC50: 100 to 1000 nM
[6]; JAK3 JH1, ADP-Glo
  IC50: < 100 nM
[7]
  IC50: 100 to 1000 nM

## C[C@@H]1CN(c2nc(-c3ccnc(F)c3)cn3nccc23)C(=O)[C@]1(C#N)C1CC1 [Example 237, (3R,4S)-3-cyclopropyl-1-(6-(2-fluoropyridin-4-yl)pyrazolo[1,5-a]pyrazin-4-yl)-4-methyl-2-oxopyrrolidine-3-carbonitrile trifluoroacetate]
[1]
  IC50: 5000 to 10000 nM
[2]
  IC50: 50 to 100 nM
[3]; JAK1 JH1, ADP-Glo
  IC50: < 100 nM
[4]; TYK2 JH1, ADP-Glo
  IC50: 5 to 20 nM
[5]; JAK2 JH1, ADP-Glo
  IC50: 100 to 1000 nM
[6]; JAK3 JH1, ADP-Glo
  IC50: 100 to 1000 nM
[7]
  IC50: 100 to 1000 nM

## C[C@@H]1CN(c2ccnn3cc(-c4cnn(C56CC(C#N)(C5)C6)c4)cc23)C(=O)[C@]1(C#N)C1CC1 [Example 320, (3R,4S)-1-(6-(1-(3-cyanobicyclo[1.1.1]pentan-1-yl)-1H-pyrazol-4-yl)pyrrolo[1,2-b]pyridazin-4-yl)-3-cyclopropyl-4-methyl-2-oxopyrrolidine-3-carbonitrile]
[1]
  IC50: 1000 to 5000 nM
[2]
  IC50: 50 to 100 nM
[3]; JAK1 JH1, ADP-Glo
  IC50: 100 to 1000 nM
[4]; TYK2 JH1, ADP-Glo
  IC50: < 5 nM
[5]; JAK2 JH1, ADP-Glo
  IC50: < 100 nM
[6]; JAK3 JH1, ADP-Glo
  IC50: < 100 nM
[7]
  IC50: 1000 to 5000 nM

## C[C@@H]1CN(c2ccnn3cc(-c4ccn(C)c(=O)c4)cc23)C(=O)[C@]1(C#N)C1CC1 [Example 79, (3R,4S)-3-cyclopropyl-4-methyl-1-(6-(1-methyl-2-oxo-1,2-dihydropyridin-4-yl)pyrrolo[1,2-b]pyridazin-4-yl)-2-oxopyrrolidine-3-carbonitrile]
[1]
  IC50: > 10000 nM
[2]
  IC50: > 100 nM
[3]; JH1 kinase domain, ADP-Glo
  IC50: 100 to 1000 nM
[4]; JH1 kinase domain, ADP-Glo
  IC50: 5 to 20 nM
[5]; JH1 kinase domain, ADP-Glo
  IC50: 100 to 1000 nM
[6]; JH1 kinase domain, ADP-Glo
  IC50: 100 to 1000 nM
[7]
  IC50: > 10000 nM

## C[C@@H]1CN(c2ccnn3cc(-c4ccc(CC#N)cn4)cc23)C(=O)[C@]1(C#N)C1CC1 [Example 127, (3R,4S)-1-(6-(5-(cyanomethyl)pyridin-2-yl)pyrrolo[1,2-b]pyridazin-4-yl)-3-cyclopropyl-4-methyl-2-oxopyrrolidine-3-carbonitrile trifluoroacetate]
[1]
  IC50: > 10000 nM
[2]
  IC50: > 100 nM
[3]; JH1 kinase domain, ADP-Glo
  IC50: 100 to 1000 nM
[4]; JH1 kinase domain, ADP-Glo
  IC50: 5 to 20 nM
[5]; JH1 kinase domain, ADP-Glo
  IC50: 100 to 1000 nM
[6]; JH1 kinase domain, ADP-Glo
  IC50: 100 to 1000 nM
[7]
  IC50: 5000 to 10000 nM
